Measured values from patent US10532053B2, “Histone deacetylase inhibitor, and preparation method and use thereof” (GUANGDONG ZHONGSHENG PHARMACEUTICAL CO., LTD, priority 2015, dated 2020).

How the values were obtained:
[1] = test system: acetylation level of HDAC substrate (Ac-α-tubulin, Ac-H3); test: Western blot assay for detecting the level of acetylated proteins; type: cell-based; conditions: HCT116 cells (FIG. 3) or MV4-11 cells (FIG. 4)
Protocol: The compounds or the positive control compound were added into each group of cells already adherent to the walls (2×10^6 HCT116 cells or 5×10^6 MV4-11 cells) at a designed concentration. After treatment for 4 hours, trypsin was added for digestion, followed by collecting the cells. After washing with cold PBS twice, the cells were lysed by adding RIPA lysis solution (which was purchased from Beyotime, Art. No.: P0013B, adding 1 mM PMSF before use), allowing for lysis on ice for 30 minutes while vortexing at intervals. The lysate was subjected to ultrasonic treatment on an ice bath (ultrasonicated for 3 seconds and repeated 5 times for each group at an interval of 10 seconds). The supernatant was collected by centrifugation at 12,000 g for 20 min at 4° C. and then mixed the SDS-PAGE loading buffer (purchased from Beyotime, Art. No.: P0015F). The mixture was heated in boiling water for 5 minutes to obtain a protein sample. The protein concentration of the sample was quantified by BCA method. 20 […] total protein from each group was subjected to 15% SDS-PAGE electrophoresis, and 5μl of a pre-stained protein marker (purchased from Thermo, Art. No.: 26616) was loaded to an additional selective lane in order to compare protein molecular weights as well as to detect the transmembrane result. When the bromophenol blue bands ran close to the bottom of the gel, the electrophoresis was terminated and the proteins on the gel were transferred to a PVDF membrane at a pore size of 0.22 μm. After 1.5 hours of transmembrane at a constant current of 200 mA, the PVDF membrane was removed and blocked in 5% skimmed milk for 1 hour. After completion of blocking, the membrane was incubated with the primary antibody (Ac-H3 antibody was purchased from Santa Cruz, Art. No.: sc-56616; Ac-α-tubulin antibody was purchased from Santa Cruz, Art. No.: sc-23950) overnight at 4° C. and then washed with TBS/T for 10 minutes for 3 times. The membrane was incubated with the horseradish peroxidase-coupled secondary antibody at room temperature for 1 hour, and then washed with TBS/T for 10 minutes for 3 times. After washing with TBS for 5 minutes, the membrane was exposed and developed by using a film in the darkroom. The detected GAPDH protein was an internal reference protein (GAPDH antibody was purchased from ZSGB-Bio, Art. No.: TA-08).

[2] = test system: Breast cancer SKBR3; test: Cell proliferative activity (MTT / cck-8); type: cell-based; conditions: Homo sapiens, SK-BR-3, read-out: Half-Inhibitory Concentration IC50 SKBR3
[3] = test system: Ramos cells; test: Therapeutic effect on the B-cell lymphoma Ramos subcutaneous tumor model; type: in vivo, NOD/SCID mice; conditions: 6 times; for tumor inhibitory rate: vs solvent group
[4] = test system: HCT116 cells; test: Therapeutic effect on the colon cancer HCT116 subcutaneous tumor model (intragastric); conditions: 8 times, vs solvent group
[5] = target: T1, HDAC6 (Homo sapiens, UniProt Q9UBN7); test: HDAC inhibitory activity, fluorescence-coupled acetylated peptide substrate assay; type: biochemical
T1 sequence (Q9UBN7 1-1215): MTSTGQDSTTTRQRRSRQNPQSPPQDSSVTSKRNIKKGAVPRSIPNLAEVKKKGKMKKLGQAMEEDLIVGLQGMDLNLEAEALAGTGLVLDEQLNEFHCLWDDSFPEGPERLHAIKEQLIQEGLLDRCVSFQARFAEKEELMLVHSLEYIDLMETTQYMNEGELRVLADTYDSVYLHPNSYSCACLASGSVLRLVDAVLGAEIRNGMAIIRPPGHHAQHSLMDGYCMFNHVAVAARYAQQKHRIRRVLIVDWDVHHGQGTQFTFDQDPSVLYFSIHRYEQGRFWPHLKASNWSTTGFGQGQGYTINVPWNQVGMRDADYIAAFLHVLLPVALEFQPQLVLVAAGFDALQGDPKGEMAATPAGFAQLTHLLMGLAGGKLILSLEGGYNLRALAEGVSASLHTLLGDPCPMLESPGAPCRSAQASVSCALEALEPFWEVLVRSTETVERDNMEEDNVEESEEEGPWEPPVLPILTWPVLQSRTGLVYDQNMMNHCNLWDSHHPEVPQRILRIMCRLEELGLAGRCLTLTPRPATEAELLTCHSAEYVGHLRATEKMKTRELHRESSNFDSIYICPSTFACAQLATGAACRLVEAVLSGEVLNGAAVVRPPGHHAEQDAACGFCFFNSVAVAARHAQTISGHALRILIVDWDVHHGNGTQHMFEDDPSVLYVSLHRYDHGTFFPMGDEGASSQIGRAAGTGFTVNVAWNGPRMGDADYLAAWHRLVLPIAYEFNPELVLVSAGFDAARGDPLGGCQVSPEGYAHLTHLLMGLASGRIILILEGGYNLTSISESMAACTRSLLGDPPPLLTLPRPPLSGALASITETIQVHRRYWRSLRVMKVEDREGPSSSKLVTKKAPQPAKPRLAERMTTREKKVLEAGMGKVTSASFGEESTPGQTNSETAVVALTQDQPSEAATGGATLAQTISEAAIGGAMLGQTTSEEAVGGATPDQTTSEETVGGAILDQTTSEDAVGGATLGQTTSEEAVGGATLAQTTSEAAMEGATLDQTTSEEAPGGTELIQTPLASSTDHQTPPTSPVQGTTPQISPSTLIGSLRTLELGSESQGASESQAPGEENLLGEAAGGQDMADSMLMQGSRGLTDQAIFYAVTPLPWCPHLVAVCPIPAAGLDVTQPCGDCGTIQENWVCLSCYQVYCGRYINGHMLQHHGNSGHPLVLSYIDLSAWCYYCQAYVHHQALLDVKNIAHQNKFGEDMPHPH
Protocol: The HDAC inhibitory activity was determined by fluorescence-coupled acetylated peptide substrate assay (Lys-Ac-AMC). HDAC1 protein was purchased from BPS Bioscience, and the reaction buffer system was a modified tris(hydroxymethyl)aminomethane buffer (pH 7.0). The small molecule compounds of the present invention were prepared by being dissolved in 100% DMSO. HDAC was prepared in a buffer at a certain concentration as an enzyme solution; trypsin and fluorescent group 4-amino-7-coumarin coupled-acetylated peptide (Ac-peptide) substrate were prepared in a buffer at a certain concentration as a substrate solution. The compounds were added into the reaction wells in a 384-well plate at a designed concentration of 10 μM, 1 μM, 0.5 μM, 0.1 μM, 0.05 μM, 0.01 μM, 0.005 μM, 0.001 μM, and 0.00005 μM, respectively, and then 15 μl of the HDAC solution was added into the reaction wells (15 μl of blank buffer to the control well). […] The results were analyzed by GraphPad Prism software and IC50 values were calculated according to the formula: Y=Background Data+(Top Data−Background Data)/(1+10^((Log IC50−X) a curve slope)), where Y: the inhibition rate (%) and X: the concentration of the compound.

[6] = target: HDAC3 (Homo sapiens, UniProt O15379); conditions: read-out: IC50 HDAC3; Table 4, Class I
HDAC3, sequence (O15379 whole entry): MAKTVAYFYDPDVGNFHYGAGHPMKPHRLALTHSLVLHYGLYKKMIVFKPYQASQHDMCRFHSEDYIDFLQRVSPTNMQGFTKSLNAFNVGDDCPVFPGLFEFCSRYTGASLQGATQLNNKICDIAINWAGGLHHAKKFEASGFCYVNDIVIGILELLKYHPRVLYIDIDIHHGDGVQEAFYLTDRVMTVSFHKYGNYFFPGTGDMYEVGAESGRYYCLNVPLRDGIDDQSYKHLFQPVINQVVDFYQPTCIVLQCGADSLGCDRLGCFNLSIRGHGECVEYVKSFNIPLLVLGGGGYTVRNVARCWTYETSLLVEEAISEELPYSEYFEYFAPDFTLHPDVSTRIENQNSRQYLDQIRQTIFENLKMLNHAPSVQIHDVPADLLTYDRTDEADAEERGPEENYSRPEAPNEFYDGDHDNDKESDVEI
HDAC3, sequence (Q9Y618 395-489 partner limits assumed): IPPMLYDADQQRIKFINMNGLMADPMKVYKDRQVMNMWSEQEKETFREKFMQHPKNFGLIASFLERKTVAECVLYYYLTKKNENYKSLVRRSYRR
Protocol: The HDAC inhibitory activity was determined by fluorescence-coupled acetylated peptide substrate assay (Lys-Ac-AMC). […] The small molecule compounds of the present invention were prepared by being dissolved in 100% DMSO. HDAC was prepared in a buffer at a certain concentration as an enzyme solution; trypsin and fluorescent group 4-amino-7-coumarin coupled-acetylated peptide (Ac-peptide) substrate were prepared in a buffer at a certain concentration as a substrate solution. The compounds were added into the reaction wells in a 384-well plate at a designed concentration of 10 μM, 1 μM, 0.5 μM, 0.1 μM, 0.05 μM, 0.01 μM, 0.005 μM, 0.001 μM, and 0.00005 μM, respectively, and then 15 μl of the HDAC solution was added into the reaction wells (15 μl of blank buffer to the control well). […] The results were analyzed by GraphPad Prism software and IC50 values were calculated according to the formula: Y=Background Data+(Top Data−Background Data)/(1+10^((Log IC50−X) a curve slope)), where Y: the inhibition rate (%) and X: the concentration of the compound.

Q: Which results are given for `COc1ccc(N(C)c2nc(C)nc3ccccc23)cc1OCCCC(=O)NO` [III-2, N-hydroxy-4-(2-methoxy-5-(methyl(2-methyl-4-quinazolinyl)amino)phenoxy) butanamide]?
A: acetylation of H3 (Ac-H3) [1]: deacetylation of Ac-H3 by the compound III-2 was also demonstrated; acetylation of α-tubulin [1]: up-regulate the acetylated α-tubulin protease in a dose-dependent manner; IC50 [2]: 22 ± 8 nM; tumor inhibitory rate ([3]; 10 mg/kg intragastrically once every other day): no effects on inhibiting tumor growth; tumor inhibitory rate ([3]; 20 mg/kg intragastrically once every other day): no effects on inhibiting tumor growth; tumor inhibitory rate ([3]; 40 mg/kg intragastrically once every other day): 22.54%; toxicity (death of mice during the experiment) ([3]; 80 mg/kg intragastrically once every other day, a mouse died): may exhibit toxicity to a few individuals; tumor inhibitory rate ([3]; 80 mg/kg intragastrically once every other day): 58.79%; tumor inhibitory rate ([4]; 6.25 mg/kg intragastrically once every other day): 51.28%; tumor inhibitory rate ([4]; 12.5 mg/kg intragastrically once every other day): 58.64%; tumor inhibitory rate ([4]; 25 mg/kg intragastrically once every other day): 60.37%; tumor inhibitory rate ([4]; 50 mg/kg intragastrically once every other day): 66.05%; IC50 ([5]; Table 2): 10 to 100 nM; IC50 ([5]; Table 4, Class IIb): 17 ± 2 nM; IC50 [6]: 439 ± 9 nM
